This note sets out measurements from patent US10570179B2, “Substituted urea depsipeptide analogs as activators of the CLPP endopeptidase” (priority 2016, dated 2020).

The target in series [1] is T1, S. aureus ClpP (Sa-ClpP) (Staphylococcus aureus, UniProt Q2G036).
T1 construct: made in house; host or cells: E. coli BL21 (DE3)
Briefly: Casein-BODIPY digestion assay (ClpP activation). The format is biochemical.

The nature of series [2]: Microsomal metabolic stability. Format: in vitro ADME, human. The procedure: Compounds were initially prepared by dissolving them into DMSO at a final concentration of 10 mM. NADPH regenerating solutions A and B and mouse liver microsomes (CD-1) were obtained from BD Gentest (Woburn, Mass.). Ninety-six well deep well plates were obtained from MidWest Scientific Inc (Valley Park, Mo.).
Sample preparation for microsomal stability was modified from methods of Di, L., et al., Int J Pharm. 2005 Jun. 13; 297(1-2):110-9. A set of incubation times of 0, 15, 30, 60, 120, and 240 minutes were used. Mouse liver microsomal solutions were prepared by adding 58 μL of concentrated human or mouse liver microsomes (20 mg/mL protein concentration) to 1.756 mL of 0.1 M potassium phosphate buffer (pH 7.4) and 5 μL of 0.5 M EDTA to make a 0.6381 mg/mL (protein) microsomal solution. NADPH regenerating agent contained 113 μL of NADPH A, 23 μL of NADPH B, and 315 μL of 0.1 M potassium phosphate buffer (pH 7.4). The diluted test compound solutions (2 μL) were each added directly to a 1.79 mL of liver microsomal solution. This solution was mixed and 90 μL was transferred to 6 time points plates (each in triplicate wells). For the time 0 plate, 225 μL of cold acetonitrile with internal standard ([…] warfarin) was added to each well, followed by addition of NADPH regenerating agent (22.5 μL) and no incubation. For other five time points' plate, NADPH regenerating agent (22.5 μL) was added to each well to initiate the reaction. The plates were incubated at 37° C. for the required time, followed by quenching of the reaction by adding 225 μL of cold acetonitrile with internal standard (4 μg/ml warfarin). All of the plates were sealed and mixed well at 600 rpm for 10 minutes followed by centrifugation at 4000 rpm for 20 minutes. The supernatants (120 μL) were transferred to analytical plates for analysis by LCMS. LCMS conditions were described in the materials and instrumentation section above. The metabolic stability is evaluated via the half-life from least-squares fit of the multiple time points based on first-order kinetics.

Numbered stars: 1 amine (or outer) side, 2 acyl side, 3 side chain; on linkers, the order of the positions; unused ones are H or OH. Bridge positions count the residues as written; N and C are the ends. Square brackets hold non-standard residues; d marks the D form. Peptide text beside a SMILES is read from it. * marks the point of attachment. Phe(3-CF3) = N[C@@H](Cc1cccc(C(F)(F)F)c1)C(=O)O; Piperazine(2S-CO,4-Me) = CN1CCN[C@H](C(=O)O)C1; NH(1,3-benzodioxol-5-yl) = c1cc2c(cc1N*)OCO2; Phe(3-OMe) = COc1cccc(C[C@H](N)C(=O)O)c1; Phe(3-Me) = Cc1cccc(C[C@H](N)C(=O)O)c1; X4 = O=C1CN([*:1])[C@H](C(=O)[*:2])CN1; NH(4-Cl-2-F-phenyl) = Fc1cc(Cl)ccc1N*; Pro(4R-Me) = C[C@H]1CN[C@H](C(=O)O)C1; NH(4-Et-phenyl) = CCc1ccc(N*)cc1; NH(4-Me-phenyl) = Cc1ccc(N*)cc1; aThr = C[C@H](O)[C@H](N)C(=O)O; Pip = O=C(O)[C@@H]1CCCCN1; X3 = c1cc2c(cc1N*)OCCO2; CO = O=C([*:1])[*:2]; X2 = Fc1cc(N*)ccc1Cl

T1 sequence (Q2G036 whole entry): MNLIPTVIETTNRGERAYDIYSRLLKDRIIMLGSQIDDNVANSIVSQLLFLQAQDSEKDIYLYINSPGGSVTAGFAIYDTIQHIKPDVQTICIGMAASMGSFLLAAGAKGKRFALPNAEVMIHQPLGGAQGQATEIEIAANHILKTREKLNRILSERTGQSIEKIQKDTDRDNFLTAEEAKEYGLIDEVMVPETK

By EC50 is commonly meant the concentration giving half of the maximal effect. A low value points to greater potency. The compound `Cc1cccc(C[C@H](NC(=O)Nc2ccc(Cl)cc2F)C(=O)N[C@H]2COC(=O)[C@@H]3C[C@@H](C)CN3C(=O)[C@H](C)NC(=O)[C@@H]3CN(C)CCN3C(=O)[C@@H]3CCCN3C2=O)c1` [Compound 13, (S)-2-(3-(4-CHLORO-2-FLUOROPHENYL)UREIDO)-3-(M-TOLYL)-N-((6AS,12S,15AS,17R,21S,23AS)-2,17,21-TRIMETHYL-6,11,15,20,23-PENTAOXOOCTADECAHYDRO-2H,6H,11H,15H-PYRAZINO[2,1-I]DIPYRROLO[2,1-C:2′,1′-L][1]OXA[4,7,10,13]TETRAAZACYCLOHEXADECIN-12-YL)PROPANAMIDE] ({NH(4-Cl-2-F-phenyl)-CO}-[Phe(3-Me)]SP[Piperazine(2S-CO,4-Me)]A[Pro(4R-Me)]; ester 2-C) yielded a concentration for a half-maximal effect (EC50) in series [1] of 1520 ± 100 nM. The “Human” value in series [2] (human, pH 7.4) was 0.38 ± 0.04 h.
The compound `Cc1cccc(C[C@H](NC(=O)Nc2ccc(Cl)c(F)c2)C(=O)N[C@H]2COC(=O)[C@@H]3C[C@@H](C)CN3C(=O)[C@H](C)NC(=O)[C@@H]3CN(C)CCN3C(=O)[C@@H]3CCCN3C2=O)c1` [Compound 14, (S)-2-(3-(4-CHLORO-3-FLUOROPHENYL)UREIDO)-3-(M-TOLYL)-N-((6AS,12S,15AS,17R,21S,23AS)-2,17,21-TRIMETHYL-6,11,15,20,23-PENTAOXOOCTADECAHYDRO-2H,6H,11H,15H-PYRAZINO[2,1-I]DIPYRROLO[2,1-C:2′,1′-L][1]OXA[4,7,10,13]TETRAAZACYCLOHEXADECIN-12-YL)PROPANAMIDE] ({X2-CO}-[Phe(3-Me)]SP[Piperazine(2S-CO,4-Me)]A[Pro(4R-Me)]; ester 2-C) displayed an EC50 in series [1] of 1410 ± 200 nM. Also, the “Human” value in series [2] (human, pH 7.4) worked out at 0.73 ± 0.07 h.
Compound `Cc1ccc(NC(=O)N[C@@H](Cc2cccc(C)c2)C(=O)N[C@H]2COC(=O)[C@@H]3C[C@@H](C)CN3C(=O)[C@H](C)NC(=O)[C@@H]3CN(C)CCN3C(=O)[C@@H]3CCCN3C2=O)cc1` [Compound 15, (S)-3-(M-TOLYL)-2-(3-(P-TOLYL)UREIDO)-N-((6AS,12S,15AS,17R,21S,23AS)-2,17,21-TRIMETHYL-6,11,15,20,23-PENTAOXOOCTADECAHYDRO-2H,6H,11H,15H-PYRAZINO[2,1-I]DIPYRROLO[2,1-C:2′,1′-L][1]OXA[4,7,10,13]TETRAAZACYCLOHEXADECIN-12-YL)PROPANAMIDE] ({NH(4-Me-phenyl)-CO}-[Phe(3-Me)]SP[Piperazine(2S-CO,4-Me)]A[Pro(4R-Me)]; ester 2-C) came in with an EC50 in series [1] of 1580 ± 200 nM. The “Human” value in series [2] (microsomal metabolic stability half-life, human liver microsomes) was 0.67 ± 0.04 h.
`CCc1ccc(NC(=O)N[C@@H](Cc2cccc(C)c2)C(=O)N[C@H]2COC(=O)[C@@H]3C[C@@H](C)CN3C(=O)[C@H](C)NC(=O)[C@@H]3CN(C)CCN3C(=O)[C@@H]3CCCN3C2=O)cc1` [Compound 16, (S)-2-(3-(4-ETHYLPHENYL)UREIDO)-3-(M-TOLYL)-N-((6AS,12S,15AS,17R,21S,23AS)-2,17,21-TRIMETHYL-6,11,15,20,23-PENTAOXOOCTADECAHYDRO-2H,6H,11H,15H-PYRAZINO[2,1-I]DIPYRROLO[2,1-C:2′,1′-L][1]OXA[4,7,10,13]TETRAAZACYCLOHEXADECIN-12-YL)PROPANAMIDE] ({NH(4-Et-phenyl)-CO}-[Phe(3-Me)]SP[Piperazine(2S-CO,4-Me)]A[Pro(4R-Me)]; ester 2-C) had a concentration giving a half-maximal response (EC50) in series [1] of 630 ± 100 nM. Further, the “Human” value in series [2] (human, pH 7.4) was determined as 0.86 ± 0.07 h.
The matching figures for `Cc1cccc(C[C@H](NC(=O)Nc2ccc3c(c2)OCO3)C(=O)N[C@H]2COC(=O)[C@@H]3C[C@@H](C)CN3C(=O)[C@H](C)NC(=O)[C@@H]3CN(C)CCN3C(=O)[C@@H]3CCCN3C2=O)c1` [Compound 17, (S)-2-(3-(BENZO[D][1,3]DIOXOL-5-YL)UREIDO)-3-(M-TOLYL)-N-((6AS,12S,15AS,17R,21S,23AS)-2,17,21-TRIMETHYL-6,11,15,20,23-PENTAOXOOCTADECAHYDRO-2H,6H,11H,15H-PYRAZINO[2,1-I]DIPYRROLO[2,1-C:2′,1′-L][1]OXA[4,7,10,13]TETRAAZACYCLOHEXADECIN-12-YL)PROPANAMIDE] ({NH(1,3-benzodioxol-5-yl)-CO}-[Phe(3-Me)]SP[Piperazine(2S-CO,4-Me)]A[Pro(4R-Me)]; ester 2-C): 2640 ± 100 nM and 1.58 ± 0.25 h.
With `C[C@@H]1C[C@H]2C(=O)OC[C@H](NC(=O)[C@H](Cc3cccc(C(F)(F)F)c3)NC(=O)Nc3ccc(Cl)cc3F)C(=O)N3CCC[C@H]3C(=O)N3CCN(C)C[C@H]3C(=O)N[C@@H](C)C(=O)N2C1` [Compound 18, (S)-2-(3-(4-CHLORO-2-FLUOROPHENYL)UREIDO)-3-(3-(TRIFLUOROMETHYL)PHENYL)-N-((6AS,12S,15AS,17R,21S,23AS)-2,17,21-TRIMETHYL-6,11,15,20,23-PENTAOXOOCTADECAHYDRO-2H,6H,11H,15H-PYRAZINO[2,1-I]DIPYRROLO[2,1-C:2′,1′-L][1]OXA[4,7,10,13]TETRAAZACYCLOHEXADECIN-12-YL)PROPANAMIDE] ({NH(4-Cl-2-F-phenyl)-CO}-[Phe(3-CF3)]SP[Piperazine(2S-CO,4-Me)]A[Pro(4R-Me)]; ester 2-C), the response in series [1] was half-maximal at 1750 ± 100 nM (EC50). Further, the “Human” value in series [2] (human, pH 7.4) turned out to be 0.75 ± 0.11 h.
In the same order, the values of `COc1cccc(C[C@H](NC(=O)Nc2ccc(Cl)cc2F)C(=O)N[C@H]2COC(=O)[C@@H]3C[C@@H](C)CN3C(=O)[C@H](C)NC(=O)[C@@H]3CN(C)CCN3C(=O)[C@@H]3CCCN3C2=O)c1` [Compound 19, (S)-2-(3-(4-CHLORO-2-FLUOROPHENYL)UREIDO)-3-(3-METHOXYPHENYL)-N-((6AS,12S,15AS,17R,21S,23AS)-2,17,21-TRIMETHYL-6,11,15,20,23-PENTAOXOOCTADECAHYDRO-2H,6H,11H,15H-PYRAZINO[2,1-I]DIPYRROLO[2,1-C:2′,1′-L][1]OXA[4,7,10,13]TETRAAZACYCLOHEXADECIN-12-YL)PROPANAMIDE] ({NH(4-Cl-2-F-phenyl)-CO}-[Phe(3-OMe)]SP[Piperazine(2S-CO,4-Me)]A[Pro(4R-Me)]; ester 2-C) are 2520 ± 200 nM and 0.61 ± 0.06 h.
In the same order, the values of `Cc1cccc(C[C@H](NC(=O)Nc2ccc(Cl)cc2F)C(=O)N[C@@H]2C(=O)N3CCC[C@H]3C(=O)N3CC(=O)NC[C@H]3C(=O)N[C@@H](C)C(=O)N3C[C@H](C)C[C@H]3C(=O)O[C@H]2C)c1` [Compound 20, (S)-2-(3-(4-CHLORO-2-FLUOROPHENYL)UREIDO)-3-(M-TOLYL)-N-((6AS,12S,13S,15AS,17R,21S,23AS)-13,17,21-TRIMETHYL-3,6,11,15,20,23-HEXAOXOOCTADECAHYDRO-2H,6H,11H,15H-PYRAZINO[2,1-I]DIPYRROLO[2,1-C:2′,1′-L][1]OXA[4,7,10,13]TETRAAZACYCLOHEXADECIN-12-YL)PROPANAMIDE] ({NH(4-Cl-2-F-phenyl)-CO}-[Phe(3-Me)][aThr]P[X4]A[Pro(4R-Me)]; ester 2-C) are 710 ± 80 nM and 1.30 ± 0.09 h.
In the same order, the values of `Cc1cccc(C[C@H](NC(=O)Nc2ccc3c(c2)OCCO3)C(=O)N[C@@H]2C(=O)N3CCC[C@H]3C(=O)N3CCCC[C@H]3C(=O)N[C@@H](C)C(=O)N3C[C@H](C)C[C@H]3C(=O)O[C@H]2C)c1` [Compound 21, (S)-2-(3-(2,3-DIHYDROBENZO[B][1,4]DIOXIN-6-YL)UREIDO)-3-(M-TOLYL)-N-((2R,6S,8AS,14AS,20S,21S,23AS)-2,6,21-TRIMETHYL-5,8,14,19,23-PENTAOXOOCTADECAHYDRO-1H,5H,14H,19H-PYRIDO[2,1-I]DIPYRROLO[2,1-C:2′,1′-L][1]OXA[4,7,10,13]TETRAAZACYCLOHEXADECIN-20-YL)PROPANAMIDE] ({X3-CO}-[Phe(3-Me)][aThr]P[Pip]A[Pro(4R-Me)]; ester 2-C) are 370 ± 40 nM and 4.49 ± 0.68 h.
On to `Cc1cccc(C[C@H](NC(=O)Nc2ccc3c(c2)OCCO3)C(=O)N[C@H]2COC(=O)[C@@H]3C[C@@H](C)CN3C(=O)[C@H](C)NC(=O)[C@@H]3CCCCN3C(=O)[C@@H]3CCCN3C2=O)c1` [Compound 22, (S)-2-(3-(2,3-DIHYDROBENZO[B][1,4]DIOXIN-6-YL)UREIDO)-N-((2R,6S,8AS,14AS,20S,23AS)-2,6-DIMETHYL-5,8,14,19,23-PENTAOXOOCTADECAHYDRO-1H,5H,14H,19H-PYRIDO[2,1-I]DIPYRROLO[2,1-C:2′,1′-L][1]OXA[4,7,10,13]TETRAAZACYCLOHEXADECIN-20-YL)-3-(M-TOLYL)PROPANAMIDE], for which the EC50 in series [1] was found to be 650 ± 60 nM. Also, the “Human” value in series [2] (human, pH 7.4) stood at 3.57 ± 0.52 h.
